In patent publication US8617614B2, “Sustained release preparation for tissue regeneration therapy” (Ono Pharmaceutical Co., Ltd., priority 2006, dated 2013):

Experiments:
Type in all cases: in vivo
[1] = test system: STZ induced diabetes model; assay: Nerve conduction velocity, STZ induced diabetes model; conditions: STZ rat, Test Group 3: 3 mg/kg oral twice daily
Description: Female Sprague-Dawley rats (8- to 11-week-old; Japan SLC, Inc.) were intraperitoneally administered 40 mg/kg of a citrate buffer (pH, approx. 4.5) of streptozotocin (STZ; Sigma). A normal control group was intraperitoneally given only the citrate buffer. Two weeks after STZ administration, and 4, 8 and 12 weeks after the start of test solution administration, the animals were anesthetized by the intraperitoneal administration of 30 to 45 mg/kg of pentobarbital. Fur was removed from the dorsolumbar region of the rat and the animal was immobilized in the prone position, following which a needle electrode for […] stimulation (NEC Medical Systems) was inserted near the sciatic nerve, a needle electrode for […] stimulation was inserted near the Achilles tendon on the same side, and a recording needle electrode (NEC Medical Systems) was inserted in the plantar muscle on the same side. After checking that the body temperature was in a range of 37 to 38° C., square-wave stimulation (0.5 Hz, 0.1 msec, submax voltage) to the distal and proximal stimulating electrodes was applied using an electrical stimulator (SEN-3301; Nihon Kohden Corporation). The evoked potential was led out via a measuring electrode, input through a bioelectric amplifier (AB-621G, Nihon Kohden Corporation) to an evoked electromyogram averaging program (MTS50061C, Medical Try System) and averaged ten times, and the nerve conduction velocity was computed from the respective distal and proximal conduction times and the electrode interval distances. Measurement was carried out on the left leg (treated side) and right leg (untreated side) in each test group, and the respective average values thereof used as the data. In Groups 2 to 5, the feeding blood sugar level two weeks after STZ administration was measured. Of rats with blood sugar levels above 300 mg/dL, severely diabetic rats were excluded therefrom, and the remaining rats were used as diabetes model animals. Groups were formed in such a way as to make the respective groups uniform with respect to nerve conduction velocity, blood sugar level and body weight. Administration was carried out in accordance with the intended route of administration for clinical use. In Test Group 3, forced administration was carried out orally using a disposable syringe barrel and a rat stomach probe. In Test Group 4, intramuscular administration was carried out uniformly at four places within the muscle along the sciatic nerve in the femoral portion of the left leg. For subcutaneous administration in test Group 5, the animals were ether anesthetized, and subcutaneous administration was carried out in the dorsal region using a disposable syringe barrel and a disposable 25 G syringe needle. The volume of solution administered was computed based on the latest body weight. The amount of microspheres administered indicates the amount of the present drug included.

[2] = test system: STZ induced diabetes model; assay: Nephropathy ameliorating action: 24 h urinary excretion, STZ induced diabetes model; conditions: urine, week 12; STZ rat; Test Group 3: 3 mg/kg oral twice daily
Description: Female Sprague-Dawley rats (8- to 11-week-old; Japan SLC, Inc.) were intraperitoneally administered 40 mg/kg of a citrate buffer (pH, approx. 4.5) of streptozotocin (STZ; Sigma). A normal control group was intraperitoneally given only the citrate buffer. Administration was carried out in accordance with the intended route of administration for clinical use. In Test Group 3, forced administration was carried out orally using a disposable syringe barrel and a rat stomach probe. In Test Group 4, intramuscular administration was carried out uniformly at four places within the muscle along the sciatic nerve in the femoral portion of the left leg. For subcutaneous administration in test Group 5, the animals were ether anesthetized, and subcutaneous administration was carried out in the dorsal region using a disposable syringe barrel and a disposable 25 G syringe needle. The volume of solution administered was computed based on the latest body weight. In week 12 from the start of test substance administration, the rats were transferred to a metabolic cage, given water ad libitum, and the urine was collected for 24 hours. […] Using the 7170 Clinical Analyzer (Hitachi, Ltd.), the total urinary protein (pyrogallol red method), creatinine (creatinase/F-DAOS method) and urine sugar were measured.

[3] = Blood concentration measurement test; conditions: male, Crl:CD (Sprague-Dawley), rat, plasma, 10 mg/kg
Description: Male Crl:CD (Sprague-Dawley) rats (SPF; Charles River Japan; 8-week-old) were subcutaneously administered the various preparations (microspheres) shown in Table 9 below at a dose of 5 mL/kg under non-fasting conditions. […] The blood thus obtained was centrifuged at 12,000 rpm for 2 minutes, and the supernatant was collected as plasma.
Blood concentration measurements of the present drug in the resulting plasma were carried out by a LC/MS/MS method. Pretreatment of the plasma consisted of adding an internal standard solution to the plasma and diluting with water, then loading into a solid-phase extraction cartridge column (ODS-B) and deproteinization by rinsing with water, followed by elution with methanol, concentration, and drying to hardness. The residue thus obtained was dissolved by adding 0.1% aqueous acetic acid/acetonitrile, and the resulting solution was poured into the LC/MS/MS apparatus.
• Present drug (Precursor ion (m/z)*: 429.2; Product ion (m/z)*: 79.2) • Internal standard (Precursor ion (m/z)*: 445.4; Product ion (m/z)*: 168.1) • *: Mass-to-charge ratio Retention time for present drug: 8.15 minutes • Test Group 1: Microspheres of Test Preparation 1 were administered subcutaneously at a dose of the present drug of 10 mg/kg. • Test Group 2: Microspheres of Test Preparation 2 were administered subcutaneously at a dose of the present drug of 10 mg/kg. • Test Group 3: Administered subcutaneously at a dose of the present drug of 10 mg/kg. • Test Group 4: Administered orally at a dose of the present drug of 10 mg/kg.
The test preparations used on the respective dose groups were formulated as shown below in Table 9. Each of the test preparations was prepared in general accordance with the method described in Preparation Example 1.

[4] = right leg (drug-untreated side)
[5] = po, Test Group 4: present drug oral 10 mg/kg
[6] = sc, Test Group 3: present drug s.c. 10 mg/kg

- concentration at 1 hour [3, 5]: 785 ng/mL
- concentration at 2 hours [3, 5]: 982 ng/mL
- concentration at 4 hours [3, 5]: 1320 ng/mL
- concentration at 8 hours [3, 5]: 705 ng/mL
- concentration at 1 day [3, 5]: 80 ng/mL
- concentration at 3 days [3, 5]: 0.04 ng/mL
- concentration at 1 hour [3, 6]: 1750 ng/mL
- concentration at 2 hours [3, 6]: 1400 ng/mL
- concentration at 4 hours [3, 6]: 685 ng/mL
- concentration at 8 hours [3, 6]: 870 ng/mL
- concentration at 12 hours ([3]; sc, Test Group 3: present drug s.c. 10 mg/kg, 12 hours): 204 ng/mL
- concentration at 1 day [3, 6]: 1.05 ng/mL
- concentration at 2 days ([3]; sc, Test Group 3: present drug s.c. 10 mg/kg, 2 days): < 0.2 ng/mL
- concentration at 3 days [3, 6]: 0.05 ng/mL
SMILES: O=C(O)COc1cccc2c1CCC=C2CCO/N=C(\c1ccccc1)c1cccnc1 [present drug, ({5-[2-({[(1E)-phenyl(pyridin-3-yl)methylene]amino}oxy)ethyl]-7,8-dihydronaphthalen-1-yl}oxy)acetic acid]
- left leg nerve conduction velocity relative to Test Group 2 ([1]; after 12 weeks): significant nerve conduction velocity increases
- right leg nerve conduction velocity relative to Test Group 2 ([1]; at any of the times): A significant extension effect was not confirmed
- Nerve conduction velocity (m/sec) 0 weeks ([1]; left leg (drug-treated side)): 37.5 ± 8.0 m/sec
- Nerve conduction velocity (m/sec) 4 weeks ([1]; left leg (drug-treated side)): 37.8 ± 3.8 m/sec
- Nerve conduction velocity (m/sec) 8 weeks ([1]; left leg (drug-treated side)): 40.8 ± 3.4 m/sec
- Nerve conduction velocity (m/sec) 0 weeks [1, 4]: 38.7 ± 5.0 m/sec
- Nerve conduction velocity (m/sec) 4 weeks [1, 4]: 39.0 ± 2.3 m/sec
- Nerve conduction velocity (m/sec) 8 weeks [1, 4]: 39.9 ± 2.2 m/sec
- Nerve conduction velocity (m/sec) 12 weeks [1, 4]: 41.3 ± 2.1 m/sec
- Total excretion (mg/24 hrs) Creatinine [2]: 116.76 ± 58.15 mg/24 hrs
- Total excretion (mg/24 hrs) Total protein [2]: 245.7 ± 231.9 mg/24 hrs
